Experimental data from ChEMBL document CHEMBL6071176, “Development of Phloroglucinol-Linked Tris-Quaternary Ammonium Salt Antimicrobial Peptide Mimics with Low Cytotoxicity and Broad-Spectrum Antibacterial Activity” (J Med Chem, 2024).
Calls of active or inactive are those of the source. No cut-off for these calls is given here.

Tests used:
[1] = Toxicity in female SPF Kunming mouse assessed as change in WBC count at 20 mg/kg/day, ip measured after 24 hrs; format: organism-based; conditions: in vivo
[2] = Toxicity in female SPF Kunming mouse assessed as change in HBG count at 20 mg/kg/day, ip measured after 24 hrs; format: organism-based; conditions: in vivo
Cell membrane [3] = test: Induction of membrane damage in Escherichia coli assessed as nucleic acid leakage measured at 0.5 to 2 times of MIC by microplate spectrophotometry; format: subcellular; conditions: TDE = time-dependent effect
Staphylococcus aureus [4] = test: Anti-biofilim activity against Staphylococcus aureus biofilm assessed bacterial survival rate at 4 ug/ml measured after 24 hrs incubation; format: functional
[5] = system: Stenotrophomonas maltophilia; test: Antimicrobial activity against Stenotrophomonas maltophilia assessed as inhibition of growth incubated for 18 hrs by CLSI guidelines based assay; format: functional
Staphylococcus aureus [6] = test: In vivo antibacterial activity against methicillin-resistant Staphylococcus aureus subcutaneously infected in SPF female Kunming mouse model assessed as bacteria count in dissected mouse at 10 mg/kg/day injected into blister after 6 hrs of infection measured after 6 consecutive treatments; format: functional, organism-based
Staphylococcus aureus [7] = test: Antibacterial activity against methicillin-resistant Staphylococcus aureus assessed as inhibition of bacterial growth incubated for 18 hrs by CLSI guidelines based assay; format: functional
Escherichia coli [8] = test: Bactericidal activity against late exponential phase Escherichia coli assessed as bacterial elimination at 8 ug/ml incubated for 6 to 8 hrs by time-kill assay; format: functional; conditions: dose 8 µg/ml; time 6-8 hrs
Staphylococcus aureus [9] = test: Induction of ROS level in Staphylococcus aureus assessed as increase in intracellular ROS level at 0.125 to 0.5 ug/ml measured after 4.5 hrs by ROS-sensitive fluorescent probe DCF-DA staining based assay; format: functional, organism-based; conditions: dose 0.125-0.5 µg/ml
Staphylococcus aureus [10] = test: Anti-biofilim activity against Staphylococcus aureus biofilm assessed bacterial survival rate at 8 ug/ml measured after 24 hrs incubation; format: functional
[11] = Selectivity index, ratio of HC50 for sheep red blood cells to MIC for Staphylococcus aureus; format: toxicity, cell-based, RBC; conditions: read-out: Selectivity Index
Staphylococcus aureus [12] = test: Anti-biofilim activity against Staphylococcus aureus biofilm assessed bacterial survival rate at 16 ug/ml measured after 24 hrs incubation; format: functional
Escherichia coli [13] = test: Resistance development in Escherichia coli assessed as increase in MIC measured within 20 passages of continues culture; format: functional
[14] = Cytotoxicity against human Gastric mucosal cells measured after 24 hrs by CCK-8 assay; format: toxicity, cell-based, Gastric mucosal cell
Enterococcus faecalis = test: Antimicrobial activity against Enterococcus faecalis assessed as inhibition of growth incubated for 18 hrs by CLSI guidelines based assay; format: functional
Staphylococcus aureus [15] = test: Up-regulation of riboflavin metabolic pathway genes in Staphylococcus aureus at 0.25 ug/ml and incubated for 4 hrs by Transcriptome analysis; format: functional, organism-based; conditions: dose 0.25 µg/ml
Staphylococcus aureus [16] = test: Down-regulation of pyridoxal-phosphate-dependent enzyme in Staphylococcus aureus at 0.25 ug/ml and incubated for 4 hrs by Transcriptome analysis; format: functional, organism-based; conditions: dose 0.25 µg/ml
Staphylococcus aureus [17] = test: Bactericidal activity against Staphylococcus aureus assessed as bacterial killing in presence of 50% serum; format: functional, organism-based
Staphylococcus aureus [18] = test: Anti-biofilim activity against Staphylococcus aureus biofilm assessed bio-film thickness at 32 ug/ml measured after 24 hrs incubation by SYTO 9 staining based […] laser scanning microscopy (CLSM) (reference value: 29.5 microm); format: functional; conditions: dose 32 µg/ml
Staphylococcus aureus [19] = test: Bactericidal activity against early exponential phase Staphylococcus aureus assessed as bacterial killing at 3 ug/ml incubated for 12 hrs by time-kill assay; format: functional, organism-based; conditions: dose 3.0 µg/ml
[20] = Hemolytic activity in Red blood cells (unknown origin) assessed as hemolytic rate at 1280 ug/ml relative to control; format: toxicity, cell-based, Erythrocyte; conditions: at 1280 µg/mL, read-out: Activity
[21] = Toxicity in female SPF Kunming mouse assessed as pathological changes in liver at 200 mg/kg/day, sc measured after 24 hrs by hematoxylin and eosin staining based assay; format: organism-based; conditions: in vivo
Staphylococcus aureus [22] = test: Antibacterial activity against methicillin-resistant Staphylococcus aureus assessed as inhibition of bacterial growth measured after 6 hrs in presence of plasma; format: functional, organism-based
Staphylococcus aureus [23] = test: Anti-microbial activity against Staphylococcus aureus assessed as bacterial growth inhibition in presence of PE (exogenous bacterial cell membrane component) measured after 18 hrs; format: functional, organism-based
Escherichia coli [24] = test: Bactericidal activity against early exponential phase Escherichia coli assessed as bacterial killing at 3 ug/ml incubated for 6 hrs by time-kill assay; format: functional, organism-based; conditions: dose 3.0 µg/ml
Staphylococcus aureus [25] = test: Antimicrobial activity against Staphylococcus aureus assessed as inhibition of growth incubated for 18 hrs by CLSI guidelines based assay; format: functional
Staphylococcus aureus [26] = test: In vivo antibacterial activity against methicillin-resistant Staphylococcus aureus subcutaneously infected in SPF female Kunming mouse model assessed as reduction wound at 5 mg/kg/day injected into blister after 6 hrs of infection measured after 6 consecutive treatments; format: functional
[27] = Toxicity in female SPF Kunming mouse assessed as change in ALB level at 20 mg/kg/day, ip measured after 24 hrs; format: organism-based; conditions: in vivo
[28] = Toxicity in female SPF Kunming mouse assessed as pathological changes in spleen at 200 mg/kg/day, sc measured after 24 hrs by hematoxylin and eosin staining based assay; format: organism-based; conditions: in vivo
Staphylococcus aureus [29] = test: Resistance development in Staphylococcus aureus assessed as increase in MIC measured within 20 passages of continues culture; format: functional
Cell membrane [30] = test: Induction of Cytoplasmic membrane depolarization in Staphylococcus aureus assessed as increase in fluorescence intensity measured at 6 times of MIC measured after 4 hrs by DiSC3(5) dye-based fluorescence assay; format: subcellular
Staphylococcus aureus [31] = test: Bactericidal activity against late exponential phase Staphylococcus aureus assessed as bacterial elimination at 8 ug/ml incubated for 6 to 8 hrs by time-kill assay; format: functional; conditions: dose 8 µg/ml; time 6-8 hrs
Staphylococcus aureus [32] = test: Anti-biofilim activity against Staphylococcus aureus biofilm assessed bacterial survival rate at 32 ug/ml measured after 24 hrs incubation; format: functional
Staphylococcus aureus [33] = test: In vivo antibacterial activity against methicillin-resistant Staphylococcus aureus subcutaneously infected in SPF female Kunming mouse model assessed as improvement in inflammatory cell infiltration in skin at 5 to 10 mg/kg/day injected into blister after 6 hrs of infection measured after 6 consecutive treatments by H and E staining based assay; format: functional, organism-based; conditions: dose 5-10 mg/kg/day, route […]
Escherichia coli [34] = test: Bactericidal activity against early exponential phase Escherichia coli assessed as bacterial killing at 3 ug/ml incubated for 12 hrs by time-kill assay; format: functional, organism-based; conditions: dose 3.0 µg/ml
Staphylococcus aureus [35] = test: Antibacterial activity against methicillin-resistant Staphylococcus aureus assessed as inhibition of bacterial growth measured after 3 hrs in presence of plasma; format: functional, organism-based
Staphylococcus aureus [36] = test: Anti-microbial activity against Staphylococcus aureus assessed as bacterial growth inhibition in presence of LPS (exogenous bacterial cell membrane component) measured after 18 hrs; format: functional, organism-based
Staphylococcus aureus [37] = test: Bactericidal activity against early exponential phase Staphylococcus aureus assessed as bacterial killing at 3 ug/ml incubated for 4 hrs by time-kill assay; format: functional, organism-based; conditions: dose 3.0 µg/ml
[38] = Toxicity in female SPF Kunming mouse assessed as change in MCV count at 20 mg/kg/day, ip measured after 24 hrs; format: organism-based; conditions: in vivo
Staphylococcus aureus [39] = test: Bactericidal activity against Staphylococcus aureus assessed as bacterial killing in presence of Mueller-Hinton broth; format: functional, organism-based
Staphylococcus aureus [40] = test: Up-regulation of quorum sensing pathway genes in Staphylococcus aureus at 0.25 ug/ml and incubated for 4 hrs by Transcriptome analysis; format: functional, organism-based; conditions: dose 0.25 µg/ml
[41] = Toxicity in female SPF Kunming mouse assessed as pathological changes in heart at 200 mg/kg/day, sc measured after 24 hrs by hematoxylin and eosin staining based assay; format: organism-based; conditions: in vivo

CCCCCCCC[N+](C)(C)CCCCOc1cc(OCCCC[N+](C)(C)CCCCCCCC)cc(OCCCC[N+](C)(C)CCCCCCCC)c1.[Br-].[Br-].[Br-]
Activity [1]: Non-Toxic | Activity [2]: Non-Toxic | Activity (Cell membrane [3]): Tde | survival at 4 µg/mL (Staphylococcus aureus [4]): 2.3% | MIC [5]: 2 µg/mL | Activity (Staphylococcus aureus [6]): Active | MIC50 (Staphylococcus aureus [7]): 1 µg/mL | MIC90 (Staphylococcus aureus [7]): ≥ 16 µg/mL | Activity (Escherichia coli [8]): 100% | Activity (Staphylococcus aureus [9]): Active | survival at 8 µg/mL (Staphylococcus aureus [10]): 0.61% | selectivity ratio [11]: > 2560 | survival at 16 µg/mL (Staphylococcus aureus [12]): 0.01% | MIC (Escherichia coli [13]): 1 µg/mL | CC50 at 24 h [14]: < 153 µg/mL | MIC (Enterococcus faecalis): 1 µg/mL | Activity (Staphylococcus aureus [15]): Active | Activity (Staphylococcus aureus [16]): Active | Activity (Staphylococcus aureus [17]): Active | Activity (Staphylococcus aureus [18]): 14.7 um | Activity (Staphylococcus aureus [19]): Active | hemolysis at 1280 ug/ml [20]: < 5% | Activity [21]: Non-Toxic | Activity (Staphylococcus aureus [22]): Active | Activity (Staphylococcus aureus [23]): Active | Activity (Escherichia coli [24]): Active | MIC (Staphylococcus aureus [25]): 0.5 µg/mL | Activity (Staphylococcus aureus [26]): 251188.6 CFU | Activity [27]: Non-Toxic | Activity [28]: Non-Toxic | MIC (Staphylococcus aureus [29]): 0.5 µg/mL | Activity (Cell membrane [30]): Active | Activity (Staphylococcus aureus [31]): 100% | survival at 32 µg/mL (Staphylococcus aureus [32]): 0.002% | Activity (Staphylococcus aureus [33]): Active | Activity (Escherichia coli [34]): Active | Activity (Staphylococcus aureus [35]): Active | Activity (Staphylococcus aureus [36]): inactive | Activity (Staphylococcus aureus [37]): Active | Activity [38]: Non-Toxic | Activity (Staphylococcus aureus [39]): Active | Activity (Staphylococcus aureus [40]): Active | Activity [41]: Non-Toxic
